# Columns and labels:
# [1] = Half life in phosphate buffer at pH 7.4 by HPLC analysis; format: physicochemical
# Liver carboxylesterase 1 [2] = biological target: T1, Liver carboxylesterase 1 (Homo sapiens, UniProt P23141); test: Reversible inhibition of human CES1 assessed as hydrolysis of 4NPA to 4NP
# T1 sequence (P23141 whole entry): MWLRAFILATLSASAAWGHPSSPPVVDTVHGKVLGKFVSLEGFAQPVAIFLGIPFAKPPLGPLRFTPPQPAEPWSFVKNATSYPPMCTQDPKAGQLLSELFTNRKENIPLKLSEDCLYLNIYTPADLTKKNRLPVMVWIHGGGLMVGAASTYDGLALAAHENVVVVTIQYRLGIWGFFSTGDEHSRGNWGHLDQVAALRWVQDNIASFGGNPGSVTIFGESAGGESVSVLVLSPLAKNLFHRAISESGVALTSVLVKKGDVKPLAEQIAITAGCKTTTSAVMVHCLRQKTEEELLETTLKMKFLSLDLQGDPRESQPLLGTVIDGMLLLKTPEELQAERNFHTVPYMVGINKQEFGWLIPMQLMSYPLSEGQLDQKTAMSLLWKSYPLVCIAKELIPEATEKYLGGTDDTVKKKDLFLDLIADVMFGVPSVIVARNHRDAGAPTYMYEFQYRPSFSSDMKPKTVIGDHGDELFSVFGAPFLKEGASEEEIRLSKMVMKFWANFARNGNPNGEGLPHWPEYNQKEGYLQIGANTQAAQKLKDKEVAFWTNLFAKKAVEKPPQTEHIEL
# [3] = Half life in phosphate buffer at 10 uM at pH 7.4 by LC/TOF-MS analysis; format: physicochemical
# Cocaine esterase [4] = biological target: T2, Cocaine esterase (Homo sapiens, UniProt O00748); test: Inhibition of human CES2 assessed as hydrolysis of 4NPA to 4NP at 1 mM by spectrophotometric analysis; conditions: 1000 µM
# T2 sequence (O00748 whole entry): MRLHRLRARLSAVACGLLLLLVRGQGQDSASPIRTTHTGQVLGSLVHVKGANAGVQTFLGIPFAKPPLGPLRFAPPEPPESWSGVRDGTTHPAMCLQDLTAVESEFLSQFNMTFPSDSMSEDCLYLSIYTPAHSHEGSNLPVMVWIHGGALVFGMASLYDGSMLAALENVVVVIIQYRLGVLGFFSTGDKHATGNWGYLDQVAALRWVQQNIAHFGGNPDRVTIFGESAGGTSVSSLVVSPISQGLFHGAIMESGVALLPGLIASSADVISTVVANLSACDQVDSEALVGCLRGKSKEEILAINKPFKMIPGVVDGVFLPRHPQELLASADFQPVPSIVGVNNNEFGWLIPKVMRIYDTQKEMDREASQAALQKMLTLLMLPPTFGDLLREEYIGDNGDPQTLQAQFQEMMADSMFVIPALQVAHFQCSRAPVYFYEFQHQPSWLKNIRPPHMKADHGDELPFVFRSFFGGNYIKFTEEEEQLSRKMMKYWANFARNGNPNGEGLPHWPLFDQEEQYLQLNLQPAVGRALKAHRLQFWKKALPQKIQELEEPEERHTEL
# [5] = Half life of the compound; format: physicochemical
# Liver carboxylesterase 1 [6] = biological target: T1, Liver carboxylesterase 1; test: Inhibition of human CES1 assessed as hydrolysis of 4NPA to 4NP at 1 mM by spectrophotometric analysis; conditions: 1000 µM
# Liver carboxylesterase 1 [7] = biological target: T1, Liver carboxylesterase 1; test: Activity of human CES1 assessed as loss of 1-O-acyl glucuronide at 100 uM measured at 60 mins by LC/TOF-MS analysis relative to control; format: ADME; conditions: 1 h
# Liver carboxylesterase 1 [8] = biological target: T1, Liver carboxylesterase 1; test: Activity of human CES1 assessed as loss of 1-O-acyl glucuronide at 100 uM measured at 10 mins by LC/TOF-MS analysis relative to control; format: ADME
# Liver carboxylesterase 1 [9] = biological target: T1, Liver carboxylesterase 1; test: Time-dependent inhibition of human CES1 assessed as hydrolysis of 4NPA to 4NP preincubated for 60 mins followed by 4NPA addition
# Liver carboxylesterase 1 [10] = biological target: T1, Liver carboxylesterase 1; test: Activity of human CES1 assessed as loss of 1-O-acyl glucuronide at 100 uM measured at 30 mins by LC/TOF-MS analysis relative to control; format: ADME; conditions: 0.5 h
# Liver carboxylesterase 1 [11] = biological target: T1, Liver carboxylesterase 1; test: Time-dependent inhibition of human CES1 assessed as hydrolysis of 4NPA to 4NP preincubated for 10 mins followed by 4NPA addition
# Liver carboxylesterase 1 [12] = biological target: T1, Liver carboxylesterase 1; test: Time-dependent inhibition of human CES1 assessed as hydrolysis of 4NPA to 4NP preincubated for 30 mins followed by 4NPA addition
# [13] = Half life in buffer at pH 7.4 by 1H NMR spectroscopic analysis in presence of human urine; format: physicochemical; conditions: buffer with human urine
# Cocaine esterase [14] = biological target: T2, Cocaine esterase; test: Inhibition of human CES2
structure (smiles),measurement,setting,value
CC(C)Cc1ccc([C@@H](C)C(=O)O[C@@H]2O[C@H](C(=O)O)[C@@H](O)[C@H](O)[C@H]2O)cc1,half-life,[1],1.8 h
CC(C)Cc1ccc([C@H](C)C(=O)O[C@@H]2O[C@H](C(=O)O)[C@@H](O)[C@H](O)[C@H]2O)cc1,half-life,[1],3.3 h
O=C(O)[C@H]1O[C@@H](OC(=O)[C@H](c2ccccc2Cl)N2CCc3sccc3C2)[C@H](O)[C@@H](O)[C@@H]1O,Ki,Liver carboxylesterase 1 [2],24.8 µM
same,half-life at 10 µM,[3],5.02 h
same,inhibition (INH),Cocaine esterase [4],Not Active
CCCC(CCC)C(=O)O[C@@H]1O[C@H](C(=O)O)[C@@H](O)[C@H](O)[C@H]1O,half-life,[5],60 h
same,half-life at 10 µM,[3],15.2 h
same,inhibition (INH),Cocaine esterase [4],Not Active
same,inhibition (INH),Liver carboxylesterase 1 [6],Not Active
COc1ccc2cc([C@@H](C)C(=O)O[C@@H]3O[C@H](C(=O)O)[C@@H](O)[C@H](O)[C@H]3O)ccc2c1,Ki,Liver carboxylesterase 1 [2],468 µM
same,half-life at 10 µM,[3],0.996 h
same,inhibition (INH),Cocaine esterase [4],Not Active
COc1ccc2cc([C@H](C)C(=O)O[C@@H]3O[C@H](C(=O)O)[C@@H](O)[C@H](O)[C@H]3O)ccc2c1,Ki,Liver carboxylesterase 1 [2],707 µM
same,half-life at 10 µM,[3],1.77 h
same,inhibition (INH),Cocaine esterase [4],Not Active
O=C(Cc1ccccc1Nc1c(Cl)cccc1Cl)O[C@@H]1O[C@H](C(=O)O)[C@@H](O)[C@H](O)[C@H]1O,Activity,Liver carboxylesterase 1 [7],75%
same,Ki,Liver carboxylesterase 1 [2],4.32 µM
same,Activity,Liver carboxylesterase 1 [8],20%
same,IC50,Liver carboxylesterase 1 [9],2.27 µM
same,Activity,Liver carboxylesterase 1 [10],50%
same,IC50,Liver carboxylesterase 1 [11],2.51 µM
same,half-life at 10 µM,[3],0.537 h
same,inhibition (INH),Cocaine esterase [4],Not Active
same,IC50,Liver carboxylesterase 1 [12],1.96 µM
O=C(O[C@@H]1O[C@H](C(=O)O)[C@@H](O)[C@H](O)[C@H]1O)c1cn(Cc2c(F)cccc2F)nn1,half-life at 10 µM,[3],0.252 h
same,inhibition (INH),Cocaine esterase [4],Not Active
same,inhibition (INH),Liver carboxylesterase 1 [6],Not Active
CC(C)Cc1ccc(C(C)C(=O)O[C@@H]2O[C@H](C(=O)O)[C@@H](O)[C@H](O)[C@H]2O)cc1 (mixture of isomers),Ki,Liver carboxylesterase 1 [2],355 µM
same,half-life,[13],3.5 h
same,half-life at 10 µM,[3],3.67 h
same,inhibition (INH),Cocaine esterase [4],Not Active
CCCC(CCC)C(=O)O [VALPROIC ACID],Ki,Cocaine esterase [14],7900 µM

# Reference: ChEMBL document CHEMBL3526059, “Reversible inhibition of human carboxylesterases by acyl glucuronides” (Drug Metab Dispos, 2013)
